{"source": "ChEMBL document CHEMBL6087462", "about": "“Cuminaldehyde Potentiates Antiproteolytic Peptide Efficacy via Parallel Pathways of Enhanced Inner Membrane-Damaging Activity and Inhibition of Bacterial Energy Metabolism” (J Med Chem, 2025)", "key": {"[1]": {"system": "Escherichia coli", "test": "Synergistic antimicrobial activity against Escherichia coli UB1005 assessed as fractional inhibitory concentration index in presence of cuminaldehyde by checkerboard broth microdilution assay", "type": "functional"}, "[2]": {"system": "Escherichia coli", "test": "Synergistic antimicrobial activity against Escherichia coli UB1005 assessed as fractional inhibitory concentration index in presence of perillaldehyde by checkerboard broth microdilution assay", "type": "functional"}, "[3]": {"system": "Escherichia coli", "test": "Synergistic antimicrobial activity against Escherichia coli K88 assessed as fractional inhibitory concentration index in presence of citronellal by checkerboard broth microdilution assay", "type": "functional"}, "[4]": {"system": "Escherichia coli", "test": "Synergistic antimicrobial activity against Escherichia coli K88 assessed as fractional inhibitory concentration index in presence of thymol by checkerboard broth microdilution assay", "type": "functional"}, "[5]": {"system": "Escherichia coli", "test": "Synergistic antimicrobial activity against Escherichia coli K88 assessed as fractional inhibitory concentration index in presence of carvacrol by checkerboard broth microdilution assay", "type": "functional"}, "[6]": {"system": "Escherichia coli", "test": "Synergistic antimicrobial activity against Escherichia coli K99 assessed as fractional inhibitory concentration index in presence of citronellal by checkerboard broth microdilution assay", "type": "functional"}, "[7]": {"system": "Escherichia coli", "test": "Synergistic antimicrobial activity against Escherichia coli K99 assessed as fractional inhibitory concentration index in presence of citral by checkerboard broth microdilution assay", "type": "functional"}, "[8]": {"system": "Escherichia coli", "test": "Synergistic antimicrobial activity against Escherichia coli 078 assessed as fractional inhibitory concentration index in presence of citral by checkerboard broth microdilution assay", "type": "functional, 78"}, "[9]": {"system": "Escherichia coli", "test": "Synergistic antimicrobial activity against Escherichia coli 078 assessed as fractional inhibitory concentration index in presence of carvacrol by checkerboard broth microdilution assay", "type": "functional, 78"}, "[10]": {"system": "Salmonella typhimurium", "test": "Synergistic antimicrobial activity against Salmonella typhimurium 14028 assessed as fractional inhibitory concentration index in presence of cuminaldehyde by checkerboard broth microdilution assay", "type": "functional, Salmonella enterica subsp. enterica serovar Typhimurium"}, "[11]": {"system": "Salmonella typhimurium", "test": "Synergistic antimicrobial activity against Salmonella typhimurium 7731 assessed as fractional inhibitory concentration index in presence of citral by checkerboard broth microdilution assay", "type": "functional, Salmonella enterica subsp. enterica serovar Typhimurium"}, "[12]": {"system": "Salmonella typhimurium", "test": "Synergistic antimicrobial activity against Salmonella typhimurium 7731 assessed as fractional inhibitory concentration index in presence of thymol by checkerboard broth microdilution assay", "type": "functional, Salmonella enterica subsp. enterica serovar Typhimurium"}, "[13]": {"test": "Synergistic antimicrobial activity against Salmonella enterica subsp. enterica serovar Pullorum 7913 assessed as fractional inhibitory concentration index in presence of cuminaldehyde by checkerboard broth microdilution assay", "type": "functional"}, "[14]": {"test": "Synergistic antimicrobial activity against Salmonella enterica subsp. enterica serovar Pullorum 7913 assessed as fractional inhibitory concentration index in presence of perillaldehyde by checkerboard broth microdilution assay", "type": "functional"}, "[15]": {"system": "Pseudomonas aeruginosa", "test": "Synergistic antimicrobial activity against Pseudomonas aeruginosa 27853 assessed as fractional inhibitory concentration index in presence of cuminaldehyde by checkerboard broth microdilution assay", "type": "functional"}, "[16]": {"system": "Pseudomonas aeruginosa", "test": "Synergistic antimicrobial activity against Pseudomonas aeruginosa 27853 assessed as fractional inhibitory concentration index in presence of citral by checkerboard broth microdilution assay", "type": "functional"}, "[17]": {"system": "Pseudomonas aeruginosa", "test": "Synergistic antimicrobial activity against Pseudomonas aeruginosa 27853 assessed as fractional inhibitory concentration index in presence of perillaldehyde by checkerboard broth microdilution assay", "type": "functional"}, "[18]": {"system": "Pseudomonas aeruginosa", "test": "Synergistic antimicrobial activity against Pseudomonas aeruginosa 27853 assessed as fractional inhibitory concentration index in presence of carvacrol by checkerboard broth microdilution assay", "type": "functional"}, "[19]": {"system": "Staphylococcus aureus", "test": "Synergistic antimicrobial activity against Staphylococcus aureus 25923 assessed as fractional inhibitory concentration index in presence of citral by checkerboard broth microdilution assay", "type": "functional"}, "[20]": {"system": "Staphylococcus aureus", "test": "Synergistic antimicrobial activity against Staphylococcus aureus 29213 assessed as fractional inhibitory concentration index in presence of citronellal by checkerboard broth microdilution assay", "type": "functional"}, "[21]": {"system": "Staphylococcus aureus", "test": "Synergistic antimicrobial activity against Staphylococcus aureus 29213 assessed as fractional inhibitory concentration index in presence of thymol by checkerboard broth microdilution assay", "type": "functional"}, "[22]": {"system": "Staphylococcus epidermidis", "test": "Synergistic antimicrobial activity against Staphylococcus epidermidis 12228 assessed as fractional inhibitory concentration index in presence of cuminaldehyde by checkerboard broth microdilution assay", "type": "functional"}, "[23]": {"system": "Staphylococcus epidermidis", "test": "Synergistic antimicrobial activity against Staphylococcus epidermidis 12228 assessed as fractional inhibitory concentration index in presence of citronellal by checkerboard broth microdilution assay", "type": "functional"}, "[24]": {"system": "Staphylococcus epidermidis", "test": "Synergistic antimicrobial activity against Staphylococcus epidermidis 12228 assessed as fractional inhibitory concentration index in presence of thymol by checkerboard broth microdilution assay", "type": "functional"}, "[25]": {"system": "Staphylococcus aureus", "test": "Synergistic antimicrobial activity against Staphylococcus aureus 43300 assessed as fractional inhibitory concentration index in presence of thymol by checkerboard broth microdilution assay", "type": "functional"}, "[26]": {"system": "Staphylococcus aureus", "test": "Synergistic antimicrobial activity against Staphylococcus aureus 43300 assessed as fractional inhibitory concentration index in presence of carvacrol by checkerboard broth microdilution assay", "type": "functional"}, "[27]": {"system": "Enterococcus faecalis", "test": "Synergistic antimicrobial activity against Enterococcus faecalis 29212 assessed as fractional inhibitory concentration index in presence of cuminaldehyde by checkerboard broth microdilution assay", "type": "functional"}, "[28]": {"system": "Enterococcus faecalis", "test": "Synergistic antimicrobial activity against Enterococcus faecalis 29212 assessed as fractional inhibitory concentration index in presence of citral by checkerboard broth microdilution assay", "type": "functional"}, "[29]": {"system": "Enterococcus faecalis", "test": "Synergistic antimicrobial activity against Enterococcus faecalis 29212 assessed as fractional inhibitory concentration index in presence of thymol by checkerboard broth microdilution assay", "type": "functional"}, "[30]": {"system": "Escherichia coli", "test": "Antimicrobial activity against Escherichia coli UB 1005 assessed as reduction in microbial growth by CLSI based broth microdilution method", "type": "functional"}, "[31]": {"system": "Escherichia coli", "test": "Antimicrobial activity against Escherichia coli K88 assessed as reduction in microbial growth by CLSI based broth microdilution method", "type": "functional"}, "[32]": {"system": "Salmonella typhimurium", "test": "Antimicrobial activity against Salmonella typhimurium ATCC 7731 assessed as reduction in microbial growth by CLSI based broth microdilution method", "type": "functional, Salmonella enterica subsp. enterica serovar Typhimurium", "conditions": "Salmonella enterica"}, "[33]": {"system": "Pseudomonas aeruginosa", "test": "Antimicrobial activity against Pseudomonas aeruginosa ATCC 27853 assessed as reduction in microbial growth by CLSI based broth microdilution method", "type": "functional"}, "[34]": {"system": "Staphylococcus aureus", "test": "Antimicrobial activity against Staphylococcus aureus ATCC 25923 assessed as reduction in microbial growth by CLSI based broth microdilution method", "type": "functional"}, "[35]": {"system": "Staphylococcus aureus", "test": "Antimicrobial activity against Staphylococcus aureus ATCC 29213 assessed as reduction in microbial growth by CLSI based broth microdilution method", "type": "functional"}, "[36]": {"system": "Staphylococcus aureus", "test": "Antimicrobial activity against Staphylococcus aureus 43300 assessed as reduction in microbial growth by CLSI based broth microdilution method", "type": "functional"}, "[37]": {"system": "Escherichia coli", "test": "Synergistic antimicrobial activity against Escherichia coli ATCC 25922 assessed as fractional inhibitory concentration by checkerboard broth microdilution assay", "type": "functional"}, "[38]": {"system": "Salmonella typhimurium", "test": "Synergistic antimicrobial activity against Salmonella typhimurium ATCC 14028 assessed as fractional inhibitory concentration by checkerboard broth microdilution assay", "type": "functional, Salmonella enterica subsp. enterica serovar Typhimurium"}, "[39]": {"system": "Staphylococcus aureus", "test": "Synergistic antimicrobial activity against Staphylococcus aureus ATCC 25923 assessed as fractional inhibitory concentration by checkerboard broth microdilution assay", "type": "functional"}, "[40]": {"system": "Escherichia coli", "test": "Antimicrobial activity against Escherichia coli K99 assessed as reduction in microbial growth in presence of cuminaldehyde by CLSI based broth microdilution method", "type": "functional"}, "[41]": {"system": "Escherichia coli", "test": "Antimicrobial activity against Escherichia coli ATCC 25922 assessed as reduction in microbial growth in presence of cuminaldehyde by CLSI based broth microdilution method", "type": "functional"}, "[42]": {"system": "Staphylococcus aureus", "test": "Antimicrobial activity against Staphylococcus aureus 43300 assessed as cuminaldehyde MIC by CLSI based broth microdilution method", "type": "functional"}, "[43]": {"system": "Enterococcus faecalis", "test": "Antimicrobial activity against Enterococcus faecalis ATCC 29212 assessed as cuminaldehyde MIC by CLSI based broth microdilution method", "type": "functional"}}}
{"compound": "CC[C@H](C)[C@H](NC(=O)[C@@H](NC(=O)[C@@H](CCCNC(=N)N)NC(=O)[C@H](C)NC(=O)[C@H](C)NC(=O)[C@@H](N)Cc1cccc2ccccc12)[C@@H](C)CC)C(=O)N[C@@H](CC(C)C)C(=O)N[C@H](CCCNC(=N)N)C(=O)N[C@@H](Cc1c[nH]c2ccccc12)C(=O)N[C@H](CCCNC(=N)N)C(=O)N[C@@H](Cc1ccccc1)C(=O)N[C@@H](CCCNC(=N)N)C(=O)O", "values": [{"measurement": "fractional inhibitory concentration index (FICI)", "setting": "[1]", "result": 0.188}, {"measurement": "fractional inhibitory concentration index (FICI)", "setting": "[2]", "result": 0.281}, {"measurement": "fractional inhibitory concentration index (FICI)", "setting": "[3]", "result": 0.156}, {"measurement": "fractional inhibitory concentration index (FICI)", "setting": "[4]", "result": 0.313}, {"measurement": "fractional inhibitory concentration index (FICI)", "setting": "[5]", "result": 0.313}, {"measurement": "fractional inhibitory concentration index (FICI)", "setting": "[6]", "result": 0.516}, {"measurement": "fractional inhibitory concentration index (FICI)", "setting": "[7]", "result": 0.375}, {"measurement": "fractional inhibitory concentration index (FICI)", "setting": "[8]", "result": 0.094}, {"measurement": "fractional inhibitory concentration index (FICI)", "setting": "[9]", "result": 0.5}, {"measurement": "fractional inhibitory concentration index (FICI)", "setting": "[10]", "result": 0.25}, {"measurement": "fractional inhibitory concentration index (FICI)", "setting": "[11]", "result": 0.141}, {"measurement": "fractional inhibitory concentration index (FICI)", "setting": "[12]", "result": 0.313}, {"measurement": "fractional inhibitory concentration index (FICI)", "setting": "[13]", "result": 0.125}, {"measurement": "fractional inhibitory concentration index (FICI)", "setting": "[14]", "result": 0.375}, {"measurement": "fractional inhibitory concentration index (FICI)", "setting": "[15]", "result": 0.156}, {"measurement": "fractional inhibitory concentration index (FICI)", "setting": "[16]", "result": 0.141}, {"measurement": "fractional inhibitory concentration index (FICI)", "setting": "[17]", "result": 0.141}, {"measurement": "fractional inhibitory concentration index (FICI)", "setting": "[18]", "result": 0.5}, {"measurement": "fractional inhibitory concentration index (FICI)", "setting": "[19]", "result": 0.25}, {"measurement": "fractional inhibitory concentration index (FICI)", "setting": "[20]", "result": 0.94}, {"measurement": "fractional inhibitory concentration index (FICI)", "setting": "[21]", "result": 0.25}, {"measurement": "fractional inhibitory concentration index (FICI)", "setting": "[22]", "result": 0.375}, {"measurement": "fractional inhibitory concentration index (FICI)", "setting": "[23]", "result": 0.25}, {"measurement": "fractional inhibitory concentration index (FICI)", "setting": "[24]", "result": 0.75}, {"measurement": "fractional inhibitory concentration index (FICI)", "setting": "[25]", "result": 0.75}, {"measurement": "fractional inhibitory concentration index (FICI)", "setting": "[26]", "result": 0.75}, {"measurement": "fractional inhibitory concentration index (FICI)", "setting": "[27]", "result": 0.313}, {"measurement": "fractional inhibitory concentration index (FICI)", "setting": "[28]", "result": 0.375}, {"measurement": "fractional inhibitory concentration index (FICI)", "setting": "[29]", "result": 0.75}, {"measurement": "MIC", "setting": "[30]", "result": 16, "unit": "µg/mL"}, {"measurement": "MIC", "setting": "[31]", "result": 4, "unit": "µg/mL"}, {"measurement": "MIC", "setting": "[32]", "result": 8, "unit": "µg/mL"}, {"measurement": "MIC", "setting": "[33]", "result": 32, "unit": "µg/mL"}, {"measurement": "MIC", "setting": "[34]", "result": 16, "unit": "µg/mL"}, {"measurement": "MIC", "setting": "[35]", "result": 16, "unit": "µg/mL"}, {"measurement": "MIC", "setting": "[36]", "result": 8, "unit": "µg/mL"}, {"measurement": "FIC", "setting": "[37]", "result": 0.125}, {"measurement": "FIC", "setting": "[38]", "result": 0.25}, {"measurement": "FIC", "setting": "[39]", "result": 0.063}, {"measurement": "MIC", "setting": "[40]", "result": 0.25, "unit": "µg/mL"}, {"measurement": "MIC", "setting": "[41]", "result": 1, "unit": "µg/mL"}, {"measurement": "MIC", "setting": "[42]", "result": 1020, "unit": "µg/mL"}, {"measurement": "MIC", "setting": "[43]", "result": 512, "unit": "µg/mL"}]}
